Assay in all cases: NCI-60 cell line screen, 48 h
Test [1] has as its system OVCAR-5 ovarian.
Test [2] deals with COLO 205 colon.
Test [3] relates to SF-268 CNS.
For test [4], the system named is MOLT-4 leukemia.
The subject of test [5] is UACC-257 melanoma.
The subject of test [6] is OVCAR-4 ovarian.
Test [7] deals with OVCAR-3 ovarian.
In test [8] the test system is MALME-3M melanoma.
The subject of test [9] is HT29 colon.
In test [10] the test system is SR leukemia.

SMILES strings stand for the structures.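 Method: 48-hour compound exposure of cells in 96-well plates, five concentrations, linear interpolation of endpoints. GI50 = concentration required for 50% inhibition of growth. TGI denotes the concentration required for complete inhibition of growth.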

Take `O=C(/C=C/c1ccco1)c1ccc(Nc2ccnc3cc(Cl)ccc23)cc1`: the GI50 in test [1] was 52 µM; in test [2], 39.2 µM; in [3], above 100 µM; in [4], 3.18 µM; in [5], 76 µM; in test [6] it was 39.9 µM. Moreover, the GI50 is 4.73 µM in [7], above 100 µM in [8] and 3.09 µM in test [9]. Further, the TGI in [1], in [2], in test [3], in test [4], in [5] and in test [6] was above 100 µM throughout. Moreover, the TGI in [7], in test [8] and in test [9] was above 100 µM each time.

For the compound `COC(=O)[C@@]12CC3CN(Cc4c1[nH]c1ccccc41)C2CC3=O`, the TGI in [1], in test [2], in test [3], in test [4], in test [5] and in test [6] was above 100 µM throughout. Moreover, the TGI in test [7], in [8] and in test [9] was above 100 µM each time.

Regarding `COc1cc(C(C)(C)C)c(OC(=O)/C=C/C(=O)O/C=C/[N+](=O)[O-])c(C(C)(C)C)c1`, the TGI in [1] was above 100 µM; in test [2], above 100 µM; in test [3], 75.7 µM; in test [4], above 100 µM; in [5] it was above 100 µM; in test [7] it was above 100 µM. The TGI in test [10] is above 100 µM; in test [9], 56.6 µM.

On to `CCCCC(=O)Nc1ccc2cc(C(=O)OC)c(=O)[nH]c2n1`, for which the TGI in test [1], in test [2], in test [3], in test [4], in test [5] and in test [6] was above 100 µM throughout. Moreover, the TGI in [7], in test [10] and in test [8] was above 100 µM throughout.

Turning to `CN(CCN(C)Cc1ccc(Cl)c(Cl)c1)CCN1CCCC1`, the TGI in test [1] was above 100 µM; in test [2], 41.2 µM; in test [3], above 100 µM; in [4], above 72.4 µM; in [5], 23.9 µM; in [6] it was above 100 µM. Besides, the TGI in [7] was above 100 µM; in [8], 35.8 µM; in [9], above 72 µM.

`O=c1[nH]nc(Nc2ccccc2)c2nnn(Cc3ccccc3)c12`: the TGI in test [1], in test [2], in test [3], in [4], in test [5] and in test [6] was above 100 µM in each case. Besides, the TGI in [10] and in test [9] was above 100 µM in each case.

`Cc1cc2nc(N)n[n+]([O-])c2cc1C`: the TGI in test [1], in [2], in test [3], in [4], in test [5] and in test [10] was above 100 µM in each case. Moreover, the TGI in [8] and in [9] was above 100 µM throughout.

Take `COc1cc(CNc2nc3cc(C(F)(F)F)ccc3nc2C(=O)O)cc(OC)c1OC`: the TGI in [1] is above 100 µM; in [2], 53.7 µM; in [3] it was above 100 µM; in [4], 58.1 µM; in [5], 63.6 µM; in test [7], 64.2 µM. Moreover, the TGI in [10] and in test [8] was above 100 µM throughout.

On to `CCNc1nc2ccccc2nc1NCC`, for which the TGI in test [1], in test [2], in [3], in [4], in test [5] and in test [7] was above 100 µM each time. Moreover, the TGI in test [10], in [8] and in [9] was above 100 µM throughout.

Turning to `O=C(O)C(C1NCCS1)N1Cc2ccccc2C1` (stereo not drawn), the TGI in test [1], in [2], in [4], in test [5], in [6] and in test [7] was above 100 µM in each case. For the same compound, the TGI in [10], in test [8] and in test [9] was above 100 µM each time.

Turning to `COc1ccc(/C=N/N=C(N)N)c(C(=O)O)c1OC`, the TGI in test [2] was above 10 µM; in test [3], above 100 µM; in test [4], above 100 µM; in test [5] it was above 100 µM; in test [6], above 100 µM; in test [7], above 100 µM. In test [9], this compound returned a TGI above 100 µM.

As for `CS(=O)(=O)c1ccc(C2=C(c3ccccc3)C(=O)OC2)cc1`, the TGI in test [1], in test [2], in [3], in [4], in test [5] and in test [6] was above 100 µM throughout. Moreover, the TGI in test [7], in [10] and in test [8] was above 100 µM each time.

On to `CCOC(=O)C(NC(=O)Nc1ccccc1)(Nc1cccc(Cl)c1)C(F)(F)F` (stereo not drawn), for which the TGI in test [1], in [2], in test [3], in [4], in [5] and in [7] was above 100 µM in each case. The TGI in test [10], in test [8] and in test [9] was above 100 µM each time.

Turning to `O=C(CSCC(=O)N/N=C/c1ccc(F)cc1)N/N=C/c1ccc(F)cc1`, the TGI is above 100 µM in test [1]; above 100 µM in [2]; above 100 µM in test [3]; 76.9 µM in test [4]; above 100 µM in test [5]; above 100 µM in [6]. The TGI in [10], in test [8] and in [9] was above 100 µM in each case.

In the case of `CN(C)CCNc1ccccn1`, the TGI in test [1], in test [3], in [4], in [5], in test [6] and in test [7] was above 100 µM each time. In addition, the TGI in [10], in test [8] and in [9] was above 100 µM in each case.

(Values after PubChem BioAssay (NCI).)
